Reference: patent US9783532B2, “Molecules having certain pesticidal utilities, and intermediates, compositions, and processes related thereto” (Dow AgroSciences LLC, priority 2013, dated 2017)

Tests used:
[1] = test system: Cabbage Looper (Trichoplusia ni) ("CL"); experiment: Bioassay on cabbage looper (CL), 128-well diet tray assay; assay type: in vivo; conditions: for pest or weed control at 50 µg/cm2: Table ABC (FB), activity rating class, read-out: CL (Biological Results, Insect species); for mortality at 50 µg/cm2: 168 h, 50 μg/cm^2 on artificial diet, second instar CL larvae, 25° C., five to seven days, average of eight wells, read-out: CL % Control (or Mortality) rating
Experimental: (§1) Certain molecules disclosed in this document were tested against BAW and CEW using procedures described in the following examples. In the reporting of the results, the “BAW & CL Rating Table” was used (See Table Section). BIOASSAYS ON BAW
Bioassays on CL were conducted using a 128-well diet tray assay. one to five second instar CL larvae were placed in each well (3 mL) of the diet tray that had been previously filled with 1 mL of artificial diet to which 50 μg/cm^2 of the test compound (dissolved in 50 μL of 90:10 acetone-water mixture) had been applied (to each of eight wells) and then allowed to dry. Trays were covered with a clear self-adhesive cover and held at 25° C., 14:10 light-dark for five to seven days. Percent mortality was recorded for the larvae in each well; activity in the eight wells was then averaged. The results are indicated in the table entitled “Table ABC: Biological Results” (See Table Section).

[2] = test system: Beet Armyworm (Spodoptera exigua) ("BAW"); experiment: Bioassay on beet armyworm (BAW), 128-well diet tray assay; assay type: in vivo; conditions: for pest or weed control at 50 µg/cm2: Table ABC (FB), activity rating class, read-out: BAW (Biological Results, Insect species); for mortality at 50 µg/cm2: 168 h, 50 μg/cm^2 on artificial diet, second instar BAW larvae, 25° C., five to seven days, average of eight wells, read-out: BAW % Control (or Mortality) rating
Experimental: as §1
Bioassays on BAW were conducted using a 128-well diet tray assay. one to five second instar BAW larvae were placed in each well (3 mL) of the diet tray that had been previously filled with 1 mL of artificial diet to which 50 μg/cm^2 of the test compound (dissolved in 50 μL of 90:10 acetone-water mixture) had been applied (to each of eight wells) and then allowed to dry. Trays were covered with a clear self-adhesive cover and held at 25° C., 14:10 light-dark for five to seven days. Percent mortality was recorded for the larvae in each well; activity in the eight wells was then averaged. The results are indicated in the table entitled “Table ABC: Biological Results” (See Table Section).

Structure (SMILES): CC(C)c1cc(F)ccc1N1C(=O)CS/C1=N\C(=O)NCc1cccc(-c2ncn(-c3ccc(OC(F)(F)F)cc3)n2)c1 [FB33, (Z)-1-(3-(4-fluoro-2-isopropylphenyl)-4-oxothiazolidin-2-ylidene)-3-(3-(1-(4-(trifluoromethoxy)phenyl)-1H-1,2,4-triazol-3-yl)benzyl)urea]
- pest or weed control at 50 µg/cm2 [1]: 50 to 100%
- pest or weed control at 50 µg/cm2 [2]: 50 to 100%

Structure (SMILES): CC(C)c1ccc(Cl)cc1N1C(=O)CS/C1=N\C(=O)NCc1cccc(-c2ncn(-c3ccc(OC(F)(F)F)cc3)n2)c1 [FB35, (Z)-1-(3-(5-chloro-2-isopropylphenyl)-4-oxothiazolidin-2-ylidene)-3-(3-(1-(4-(trifluoromethoxy)phenyl)-1H-1,2,4-triazol-3-yl)benzyl)urea]
- pest or weed control at 50 µg/cm2 [1]: 50 to 100%
- pest or weed control at 50 µg/cm2 [2]: 50 to 100%

Structure (SMILES): COc1ccc(NC(=S)NC(=O)NCCCCc2cccc(-c3ncn(-c4ccc(OC(F)(F)F)cc4)n3)c2)c(C)c1 [FB36, 1-[(4-methoxy-2-methyl-phenyl)carbamothioyl]-3-[4-[3-[1-[4-(trifluoromethoxy)phenyl]-1H-1,2,4-triazol-3-yl]phenyl]butyl]urea]
- pest or weed control at 50 µg/cm2 [1]: 50 to 100%
- pest or weed control at 50 µg/cm2 [2]: 0 to 50%

Structure (SMILES): CC(C)c1ccc(Cl)cc1NC(=S)NC(=O)NCCCCc1cccc(-c2ncn(-c3ccc(OC(F)(F)F)cc3)n2)c1 [FB37, 1-[(5-chloro-2-isopropyl-phenyl)carbamothioyl]-3-[4-[3-[1-[4-(trifluoromethoxy)phenyl]-1H-1,2,4-triazol-3-yl]phenyl]butyl]urea]
- pest or weed control at 50 µg/cm2 [1]: 0 to 50%
- pest or weed control at 50 µg/cm2 [2]: 0 to 50%

Structure (SMILES): COc1ccc(N2C(=O)CS/C2=N\C(=O)NCCCCc2cccc(-c3ncn(-c4ccc(OC(F)(F)F)cc4)n3)c2)c(C)c1 [FB38, (Z)-1-(3-(4-methoxy-2-methylphenyl)-4-oxothiazolidin-2-ylidene)-3-(4-(3-(1-(4-(trifluoromethoxy)phenyl)-1H-1,2,4-triazol-3-yl)phenyl)butyl)urea]
- pest or weed control at 50 µg/cm2 [1]: 50 to 100%
- pest or weed control at 50 µg/cm2 [2]: 0 to 50%

Structure (SMILES): CC(C)c1ccc(Cl)cc1N1C(=O)CS/C1=N\C(=O)NCCCCc1cccc(-c2ncn(-c3ccc(OC(F)(F)F)cc3)n2)c1 [FB39, (Z)-1-(3-(5-chloro-2-isopropylphenyl)-4-oxothiazolidin-2-ylidene)-3-(4-(3-(1-(4-(trifluoromethoxy)phenyl)-1H-1,2,4-triazol-3-yl)phenyl)butyl)urea]
- pest or weed control at 50 µg/cm2 [1]: 50 to 100%
- pest or weed control at 50 µg/cm2 [2]: 50 to 100%

Structure (SMILES): Cc1ccc(C(C)C)c(N2C(=O)CS/C2=N\C(=O)N[C@H](C)Cc2ccc(-c3ncn(-c4ccc(OC(F)(F)F)cc4)n3)cc2)c1 [FB45, (R,Z)-1-(3-(2-isopropyl-5-methylphenyl)-4-oxothiazolidin-2-ylidene)-3-(1-(4-(1-(4-(trifluoromethoxy)phenyl)-1H-1,2,4-triazol-3-yl)phenyl)propan-2-yl)urea]
- pest or weed control at 50 µg/cm2 [1]: 50 to 100%
- pest or weed control at 50 µg/cm2 [2]: 50 to 100%

Structure (SMILES): CC(C)c1ccc(Cl)cc1N1C(=O)CS/C1=N\C(=O)NCCc1ccc(-c2ncn(-c3ccc(C(F)(F)F)cc3)n2)cc1 [FB50, (Z)-1-(3-(5-chloro-2-isopropylphenyl)-4-oxothiazolidin-2-ylidene)-3-(4-(1-(4-(trifluoromethyl)phenyl)-1H-1,2,4-triazol-3-yl)phenethyl)urea]
- pest or weed control at 50 µg/cm2 [1]: 50 to 100%
- pest or weed control at 50 µg/cm2 [2]: 50 to 100%

Structure (SMILES): Cc1ccc(C(C)C)c(N2C(=O)CS/C2=N\C(=O)NC(C)(C)Cc2ccc(-c3ncn(-c4ccc(OC(F)(F)F)cc4)n3)cc2)c1 [FB52, (Z)-1-(3-(2-isopropyl-5-methylphenyl)-4-oxothiazolidin-2-ylidene)-3-(2-methyl-1-(4-(1-(4-(trifluoromethoxy)phenyl)-1H-1,2,4-triazol-3-yl)phenyl)propan-2-yl)urea]
- pest or weed control at 50 µg/cm2 [1]: 50 to 100%
- pest or weed control at 50 µg/cm2 [2]: 50 to 100%

Structure (SMILES): CCc1ccc(C)cc1N1/C(=N/C(=O)NCCc2ccc(-c3ncn(-c4ccc(OC(F)(F)F)cc4)n3)cc2)SCC1C (stereo not drawn) [FB55, (Z)-1-(3-(2-ethyl-5-methylphenyl)-4-methylthiazolidin-2-ylidene)-3-(4-(1-(4-(trifluoromethoxy)phenyl)-1H-1,2,4-triazol-3-yl)phenethyl)urea]
- pest or weed control at 50 µg/cm2 [1]: 50 to 100%
- pest or weed control at 50 µg/cm2 [2]: 50 to 100%

Structure (SMILES): Cc1ccc(C(C)C)c(N2C(=O)C(F)S/C2=N\C(=O)NCCc2ccc(-c3ncn(-c4ccc(OC(F)(F)F)cc4)n3)cc2)c1 (stereo not drawn) [FB64, (Z)-1-(5-fluoro-3-(2-isopropyl-5-methylphenyl)-4-oxothiazolidin-2-ylidene)-3-(4-(1-(4-(trifluoromethoxy)phenyl)-1H-1,2,4-triazol-3-yl)phenethyl)urea]
- pest or weed control at 50 µg/cm2 [1]: 50 to 100%
- pest or weed control at 50 µg/cm2 [2]: 50 to 100%

Structure (SMILES): CCS/C(=N\C(=O)NCCc1ccc(-c2ncn(-c3ccc(OC(F)(F)F)cc3)n2)cc1)Nc1cc(C)ccc1C(C)C [FB66, (Z)-ethyl N-(2-isopropyl-5-methylphenyl)-N′-((4-(1-(4-(trifluoromethoxy)phenyl)-1H-1,2,4-triazol-3-yl)phenethyl)carbamoyl)carbamimidothioate]
- pest or weed control at 50 µg/cm2 [1]: 50 to 100%
- pest or weed control at 50 µg/cm2 [2]: 50 to 100%

Structure (SMILES): Cc1ccc(C(C)C)c(N2C(=O)C(C)(C)S/C2=N\C(=O)NCCc2ccc(-c3ncn(-c4ccc(OC(F)(F)F)cc4)n3)cc2)c1 [FB68, (Z)-1-(3-(2-isopropyl-5-methylphenyl)-5,5-dimethyl-4-oxothiazolidin-2-ylidene)-3-(4-(1-(4-(trifluoromethoxy)phenyl)-1H-1,2,4-triazol-3-yl)phenethyl)urea]
- pest or weed control at 50 µg/cm2 [1]: 50 to 100%
- pest or weed control at 50 µg/cm2 [2]: 50 to 100%

Structure (SMILES): Cc1ccc(C(C)C)c(N2C(=O)C3(CC3)S/C2=N\C(=O)NCCc2ccc(-c3ncn(-c4ccc(OC(F)(F)F)cc4)n3)cc2)c1 [FB69, (Z)-1-(6-(2-isopropyl-5-methylphenyl)-7-oxo-4-thia-6-azaspiro[2.4]heptan-5-ylidene)-3-(4-(1-(4-(trifluoromethoxy)phenyl)-1H-1,2,4-triazol-3-yl)phenethyl)urea]
- pest or weed control at 50 µg/cm2 [1]: 50 to 100%
- pest or weed control at 50 µg/cm2 [2]: 50 to 100%

Structure (SMILES): Cc1ccc(C(C)C)c(N2C(=O)C(C(C)(C)O)S/C2=N\C(=O)NCCc2ccc(-c3ncn(-c4ccc(OC(F)(F)F)cc4)n3)cc2)c1 (stereo not drawn) [FB72, (Z)-1-(5-(2-hydroxypropan-2-yl)-3-(2-isopropyl-5-methylphenyl)-4-oxothiazolidin-2-ylidene)-3-(4-(1-(4-(trifluoromethoxy)phenyl)-1H-1,2,4-triazol-3-yl)phenethyl)urea]
- pest or weed control at 50 µg/cm2 [1]: 50 to 100%
- pest or weed control at 50 µg/cm2 [2]: 50 to 100%

Structure (SMILES): Cc1ccccc1N1C(=O)CS/C1=N\C(=O)NCc1ccc(-c2ncn(-c3ccc(OC(F)(F)F)cc3)n2)cc1 [P1, (Z)-1-(4-oxo-3-(o-tolyl)thiazolidin-2-ylidene)-3-(4-(1-(4-(trifluoromethoxy)phenyl)-1H-1,2,4-triazol-3-yl)benzyl)urea]
- mortality at 50 µg/cm2 [1]: 50 to 100%
- mortality at 50 µg/cm2 [2]: 50 to 100%

Structure (SMILES): CCc1ccccc1N1C(=O)CS/C1=N\C(=O)NCc1ccc(-c2ncn(-c3ccc(OC(F)(F)F)cc3)n2)cc1 [P2, P532, (Z)-1-(3-(2-ethylphenyl)-4-oxothiazolidin-2-ylidene)-3-(4-(1-(4-(trifluoromethoxy)phenyl)-1H-1,2,4-triazol-3-yl)benzyl)urea]
- mortality at 50 µg/cm2 [1]: 50 to 100%
- mortality at 50 µg/cm2 [2]: 50 to 100%

Structure (SMILES): CC(C)c1cc(F)ccc1N1C(=O)CS/C1=N\C(=O)NCc1ccc(-c2ncn(-c3ccc(OC(F)(F)F)cc3)n2)cc1 [P3, P1172, (Z)-1-(3-(4-fluoro-2-isopropylphenyl)-4-oxothiazolidin-2-ylidene)-3-(4-(1-(4-(trifluoromethoxy)phenyl)-1H-1,2,4-triazol-3-yl)benzyl)urea]
- mortality at 50 µg/cm2 [1]: 50 to 100%
- mortality at 50 µg/cm2 [2]: 50 to 100%

Structure (SMILES): Cc1ccc(N2C(=O)CS/C2=N\C(=O)NCc2ccc(-c3ncn(-c4ccc(OC(F)(F)F)cc4)n3)cc2)c(C(C)C)c1 [P5, (Z)-1-(3-(2-isopropyl-4-methylphenyl)-4-oxothiazolidin-2-ylidene)-3-(4-(1-(4-(trifluoromethoxy)phenyl)-1H-1,2,4-triazol-3-yl)benzyl)urea]
- mortality at 50 µg/cm2 [1]: 50 to 100%
- mortality at 50 µg/cm2 [2]: 50 to 100%

Structure (SMILES): COc1ccc(N2C(=O)CS/C2=N\C(=O)NCc2ccc(-c3ncn(-c4ccc(OC(F)(F)F)cc4)n3)cc2)c(C)c1 [P6, (Z)-1-(3-(4-methoxy-2-methylphenyl)-4-oxothiazolidin-2-ylidene)-3-(4-(1-(4-(trifluoromethoxy)phenyl)-1H-1,2,4-triazol-3-yl)benzyl)urea]
- mortality at 50 µg/cm2 [1]: 50 to 100%
- mortality at 50 µg/cm2 [2]: 50 to 100%

Structure (SMILES): CCc1ccc(C)cc1N1C(=O)CS/C1=N\C(=O)NCc1ccc(-c2ncn(-c3ccc(OC(F)(F)F)cc3)n2)cc1 [P7, (Z)-1-(3-(2-ethyl-5-methylphenyl)-4-oxothiazolidin-2-ylidene)-3-(4-(1-(4-(trifluoromethoxy)phenyl)-1H-1,2,4-triazol-3-yl)benzyl)urea]
- mortality at 50 µg/cm2 [1]: 50 to 100%
- mortality at 50 µg/cm2 [2]: 50 to 100%
